Results as given in patent US3963756A, “Derivatives of 6-methyl-2H-pyran-2,4(3H)-dione” (Zaidan Hojin Biseibutsu Kagaku Kenkyu Kai, priority 1972, dated 1976).

Key:
[1] = test system: rat; assay: Blood pressure in rats; format: in vivo; conditions: for systolic blood pressure lowered to: 6.25 mg/kg i.p.
Procedure: (§1) Hydroxylation of tyrosine is the rate-limiting step of norepinephrine biosynthesis. Therefore, inhibition of tyrosine hydroxylase results in inhibition of norepinephrine synthesis in vivo which results in lowering the blood pressure. […] Okamoto, of the Medical School, University of Kyoto, Japan, and described in "Journal of Antibiotics" 23: 514 (1970).
When 6.25 mg/kg was intraperitoneally injected to a rat of 185 mm. systolic blood pressure and another rat of 188 mm., the blood pressure was then lowered to 115-145 mm. and 138-166 mm. respectively during 1-22 hours after the injection. When […]. was intraperitoneally injected to a rat of 190 mm. systolic blood pressure, the pressure was reduced to 146-162 mm. during 1-22 hours after the injection. […] It caused 20-30% reduction of blood pressure which continued for about 5 days after the last oral administration.

[2] = test system: mice; assay: Toxicity in mice (LD50; 30-day daily dosing); format: in vivo; conditions: 160, 40 and 10 mg/kg orally or intraperitoneally daily to mice for 30 days
[3] = molecular target: T1, Tyrosine Hydroxylase (Bos taurus, UniProt P17289); assay: Inhibition of tyrosine hydroxylase (TH); format: biochemical
T1 sequence (P17289 1-491): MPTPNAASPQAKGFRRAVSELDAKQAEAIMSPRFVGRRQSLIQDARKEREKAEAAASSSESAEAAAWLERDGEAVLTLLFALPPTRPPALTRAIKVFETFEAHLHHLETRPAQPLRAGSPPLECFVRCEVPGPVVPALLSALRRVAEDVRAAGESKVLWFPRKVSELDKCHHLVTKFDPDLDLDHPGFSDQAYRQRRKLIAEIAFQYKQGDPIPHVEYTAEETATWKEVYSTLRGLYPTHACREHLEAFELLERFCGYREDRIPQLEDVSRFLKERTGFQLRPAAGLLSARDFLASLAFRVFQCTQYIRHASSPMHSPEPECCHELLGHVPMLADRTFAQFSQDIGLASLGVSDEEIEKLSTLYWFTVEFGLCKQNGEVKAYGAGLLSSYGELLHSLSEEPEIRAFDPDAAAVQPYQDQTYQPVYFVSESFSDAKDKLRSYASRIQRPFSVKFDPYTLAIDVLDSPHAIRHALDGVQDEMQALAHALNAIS
Source text: (§2) The new compounds of the present invention have been examined for their biological activities, and their inhibition to tyrosine hydroxylase and dopamine β-hydroxylase are summarized below in Table 2. The details of the test methods used and the close relationship and reliable correlation of biological activities between in vitro and in vivo test results are well documented in the literature, e.g. J. Antibiot. 23: 514 (1970); Biochem. Pharmacol., 19: 35 (1970); and J. Am. Chem. Soc. 93: 1285 (1971). […] The effects of this compound on tyrosine hydroxylase and dopamine β-hydroxylase were also tested by the methods described in the Journal of Antibiotics 23:514 (1970) and Biochem. Pharmacol. 19:35 (1970), respectively.
(§3) The chemical structure of the products [I], solvent for hydrogenation and solvent for recrystallization are summarised in Table 1, and the yields of the products [I] are also shown in Table 1 together with their melting points, elemental analysis data, Inhibition (%) of tyrosine hydroxylase (TH) and Inhibition (%) to dopamine β-hydroxylase (DH) at different concentrations of the products [I] of 100 mcg/cc and 200 mcg/cc.

[4] = test system: mice and rats; assay: Sleeping / sedative effect in mice and rats; format: in vivo; conditions: injection of 200 mg/kg to mice and rats
Source text: as §1

[5] = test system: genetically hypertensive rats; assay: Blood pressure in genetically hypertensive rats; format: in vivo; conditions: genetically hypertensive rats (Okamoto)
Source text: as §1

[6] = test system: bacteria and fungi; conditions: Chemical Abstracts 50, 980e; cited from earlier work
[7] = Lowering of blood pressure (general statements); design: species or system mammals; conditions: in vivo
[8] = molecular target: T2, Dopamine β-Hydroxylase (Bos taurus, UniProt P15101); assay: Inhibition of dopamine β-hydroxylase (DH); format: biochemical
T2 sequence (P15101 1-610): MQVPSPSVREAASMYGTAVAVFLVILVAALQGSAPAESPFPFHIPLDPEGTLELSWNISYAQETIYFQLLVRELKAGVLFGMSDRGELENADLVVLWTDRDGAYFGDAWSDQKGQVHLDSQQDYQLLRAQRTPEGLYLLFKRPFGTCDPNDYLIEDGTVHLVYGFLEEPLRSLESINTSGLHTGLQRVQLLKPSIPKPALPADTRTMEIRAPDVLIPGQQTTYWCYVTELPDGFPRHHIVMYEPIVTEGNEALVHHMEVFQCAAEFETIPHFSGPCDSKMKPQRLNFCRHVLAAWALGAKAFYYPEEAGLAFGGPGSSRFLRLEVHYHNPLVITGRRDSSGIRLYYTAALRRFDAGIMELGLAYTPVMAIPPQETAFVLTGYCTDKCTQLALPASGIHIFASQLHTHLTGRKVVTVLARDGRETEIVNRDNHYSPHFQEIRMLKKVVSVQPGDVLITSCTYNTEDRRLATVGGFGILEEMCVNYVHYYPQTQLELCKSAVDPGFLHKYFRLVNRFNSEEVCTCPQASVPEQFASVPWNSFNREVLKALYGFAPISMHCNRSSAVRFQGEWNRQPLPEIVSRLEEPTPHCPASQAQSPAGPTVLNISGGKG
Source text: as §2, §3

[9] = Toxicity in mice (LD50; 30-day daily dosing); format: in vivo; conditions: mouse, in vivo, ip; mice, intraperitoneal injection
[10] = oral daily for three days, 3.1, 6.25, 12.5, 25 mg/kg

Question: Which results are given for `COc1ccccc1CCC(=O)C1C(=O)C=C(C)OC1=O` (stereo not drawn) [3-(2-methoxyhydrocinnamoyl)-6-methyl-2H-pyran-2,4(3H)-dione] [listing 1 of 2 here]?
Answer: duration of blood pressure reduction after the last oral administration [1, 10]: about 5 days; reduction of blood pressure [1, 10]: 20-30%; reduction of blood pressure (in words) [1, 10]: marked reduction of blood pressure; systolic blood pressure lowered to ([1]; rat of 185 mm systolic, during 1-22 hours after injection): 115-145 mm; systolic blood pressure lowered to ([1]; rat of 188 mm systolic, during 1-22 hours after injection): 138-166 mm; systolic blood pressure reduced to ([1]; rat of 190 mm systolic, 12.5 mm/kg (so in the source) i.p., during 1-22 hours after injection): 146-162 mm; systolic and diastolic blood pressure ([1]; rats, daily injection or daily oral administration, 3.5 mg/kg): lowered both the systolic and the diastolic blood pressure; usual toxic signs [2]: none of the usual toxic signs appeared except a decrease in the blood pressure; inhibition % to tyrosine hydroxylase ([3]; 12.5 mcg/cc): 10%; inhibition % to tyrosine hydroxylase ([3]; 25 mcg/cc): 18%; inhibition % to tyrosine hydroxylase ([3]; 50 mcg/cc): 22%; inhibition % to tyrosine hydroxylase ([3]; 100 mcg/cc): 32%; sleeping and sedative effect [4]: did not cause sleeping and a sedative effect was not recognized; hypotensive effect [5]: even more markedly

Question: With `CC1=CC(=O)C(C(=O)CCc2ccccc2)C(=O)O1` (stereo not drawn) [3-hydrocinnamoyl-6-methyl-2H-pyran-2,4(3H)-dione, reference compound] as the compound, how does the “antibacterial and antifungal activity” value [6] read?
Answer: Its value is “weak antibacterial and antifungal activity”.

Question: What about the inhibition at 100 µg/mL ([3]; 100 mcg/cc) of the same compound?
Answer: Its inhibition at 100 µg/mL is 49.7%.

Question: What about the inhibition at 200 µg/mL ([3]; 200 mcg/cc) of the same compound?
Answer: The inhibition at 200 µg/mL was 52.8%.

Question: What about the “blood pressure reducing (hypotensive) activity, in words” value [7] of the same compound?
Answer: Its value is “active in reducing blood pressure”.

Question: What about the “inhibition to DH” value ([8]; 100 mcg/cc) of the same compound?
Answer: The value was 100%.

Question: What does the source list for `COc1ccccc1CCC(=O)C1C(=O)C=C(C)OC1=O` (stereo not drawn) [3-(2-methoxyhydrocinnamoyl)-6-methyl-2H-pyran-2,4(3H)-dione] [listing 2 of 2 here]?
Answer: LD50 [9]: 1200 mg/kg; IC50 [8]: 1910 nM
